Source: paper PMC12051030, “Identification of inhibitors of the Salmonella FraB deglycase, a drug target” (FEBS Open Bio, 2025)

Target: His6‐FraB (Salmonella FraB deglycase) (Salmonella enterica subsp. enterica serovar Typhimurium, UniProt Q8ZLD0)
Assay: FraB-G6PD coupled assay, Michaelis–Menten analysis for K I and mode of inhibition
Format: biochemical
Experimental: To determine the K I of each inhibitor, 29 μL of master mix was added to two rows of a 384‐well Greiner plate, using a single‐channel pipette, and incubated at 20 °C for 20 min. A 12‐channel pipette was then used to transfer and mix 1 μL of varying [6‐P‐F‐Asp] to all 48 wells. The final reaction (30 μL) consisted of 25 mM HEPES pH 8.0 at 20 °C, 5 mM MgCl2, 0.1 mM EGTA, 0.5 mM NAD^+, 1 mU G6PD, 100 nM His6‐FraB, varying (6‐P‐F‐Asp) (between 8 and 12 concentrations), and varying [inhibitor] (between three and five concentrations) in 10% (v/v) DMSO. NADH fluorescence was monitored every 10 s for 10 min total on a SPARK® multi‐mode multiplate reader (Tecan), as described above, and plotted against time. Slopes of the linear range of each curve were converted to initial velocities, as described above, that were then plotted against [6‐P‐F‐Asp]. A hyperbolic curve was then fitted to the data to obtain the k cat and K m values according to the formula: v o = (V max × [S])/(K m + [S]).
To determine the correlation between the observed and expected initial velocities (Fig. S5A), these values were exported from Kaleidagraph, plotted against one another, and a curve was fit using the formula: y = mx + b. The differences between observed and expected initial velocities (residuals) were then depicted as box‐and‐whisker plots (Fig. S5B). Lineweaver‐Burk plots were generated by graphing 1/v o versus 1/[S] and curves were fit to the data with Kaleidagraph using the formula: 1/v o = (Km/V max).(1/[S]) + (1/V max). The k cat and K m parameters were then converted into α′ values by dividing the k cat of the control (no inhibitor) by either itself (α′= 1) or the k cat of test samples with variable [inhibitor]. Those α′ values were plotted against [inhibitor] and K I values were determined from the equation α = 1 + [I]/K I.
The initial velocities used to generate the Michaelis–Menten plots were also employed to obtain the IC50 vs [S]/K m plots. For a given [S], initial velocities were converted into relative activities and plotted versus [inhibitor]. […] The IC50 values determined from the IC50 vs [S]/K m plots were then used to plot 1/IC50 versus v o/V max. A curve was fit to the data using the formula: y = mx + b. The Y‐intercept of the 1/IC50 versus v o/V max plot is equal to 1/K IC, and the slope, for mixed inhibitors, is equal to 1/K IU – 1/K IC. […] Data analyses were performed as described above (see Tables S1–S7 for curve‐fit errors and goodness‐of‐fit values).

Sequence of His6‐FraB (Salmonella FraB deglycase) (Q8ZLD0 entry or part of it): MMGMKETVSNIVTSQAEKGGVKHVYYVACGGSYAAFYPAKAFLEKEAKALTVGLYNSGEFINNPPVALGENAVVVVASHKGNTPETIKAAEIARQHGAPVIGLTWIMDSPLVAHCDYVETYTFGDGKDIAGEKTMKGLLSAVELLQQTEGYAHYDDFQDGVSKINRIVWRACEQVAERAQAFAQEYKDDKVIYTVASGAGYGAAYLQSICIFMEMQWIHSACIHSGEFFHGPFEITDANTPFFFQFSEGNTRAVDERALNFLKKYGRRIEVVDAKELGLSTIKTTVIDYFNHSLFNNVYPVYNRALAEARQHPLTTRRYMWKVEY

**Q.** What does the source list for `Fc1ccc(-c2nn3c(-c4ccccn4)nnc3s2)cc1` [3469:N17, 6‐(4‐fluorophenyl)‐3‐pyridin‐2‐yl‐[1,2,4]triazolo[3,4‐b][1,3,4]thiadiazole]?
**A.** change of IC50 values with increasing [S]/K m ('this trend' = IC50 does not vary with [S]/K m, change evident only from 0.2 to 1.6× [S]/K m): modest decrease; slope in plots of 1/IC50 vs. v o/V max (Fig. S12): weakly positive; IC50 (IC50 (IC50 versus [S]/Km plots), Trial 1, 6-P-F-Asp 7.38 µM, S/Km 0.175714, unit from Fig. S11 axis): 47.9 µM; IC50 (IC50 (IC50 versus [S]/Km plots), Trial 1, 6-P-F-Asp 15.7 µM, S/Km 0.37381, unit from Fig. S11 axis): 45.4 µM; IC50 (IC50 (IC50 versus [S]/Km plots), Trial 1, 6-P-F-Asp 31.3 µM, S/Km 0.745238, unit from Fig. S11 axis): 40.9 µM; IC50 (IC50 (IC50 versus [S]/Km plots), Trial 1, 6-P-F-Asp 62.5 µM, S/Km 1.488095, unit from Fig. S11 axis): 34.9 µM; IC50 (IC50 (IC50 versus [S]/Km plots), Trial 1, 6-P-F-Asp 125 µM, S/Km 2.97619, unit from Fig. S11 axis): 32.7 µM; IC50 (IC50 (IC50 versus [S]/Km plots), Trial 1, 6-P-F-Asp 250 µM, S/Km 5.952381, unit from Fig. S11 axis): 34.1 µM; IC50 (IC50 (IC50 versus [S]/Km plots), Trial 1, 6-P-F-Asp 500 µM, S/Km 11.90476, unit from Fig. S11 axis): 30.1 µM; IC50 (IC50 (IC50 versus [S]/Km plots), Trial 1, 6-P-F-Asp 750 µM, S/Km 17.85714, unit from Fig. S11 axis): 33.4 µM; IC50 (IC50 (IC50 versus [S]/Km plots), Trial 1, 6-P-F-Asp 1000 µM, S/Km 23.80952, unit from Fig. S11 axis): 32.7 µM; IC50 (IC50 (IC50 versus [S]/Km plots), Trial 1, 6-P-F-Asp 2000 µM, S/Km 47.61905, unit from Fig. S11 axis): 32.5 µM; IC50 (IC50 (IC50 versus [S]/Km plots), Trial 1, 6-P-F-Asp 3000 µM, S/Km 71.42857, unit from Fig. S11 axis): 39.3 µM; IC50 (IC50 (IC50 versus [S]/Km plots), Trial 2, 6-P-F-Asp 7.38 µM, S/Km 0.175714, unit from Fig. S11 axis): 36.6 µM; IC50 (IC50 (IC50 versus [S]/Km plots), Trial 2, 6-P-F-Asp 15.7 µM, S/Km 0.37381, unit from Fig. S11 axis): 44.8 µM; IC50 (IC50 (IC50 versus [S]/Km plots), Trial 2, 6-P-F-Asp 31.3 µM, S/Km 0.745238, unit from Fig. S11 axis): 48.2 µM; IC50 (IC50 (IC50 versus [S]/Km plots), Trial 2, 6-P-F-Asp 62.5 µM, S/Km 1.488095, unit from Fig. S11 axis): 48.5 µM; IC50 (IC50 (IC50 versus [S]/Km plots), Trial 2, 6-P-F-Asp 125 µM, S/Km 2.97619, unit from Fig. S11 axis): 37.7 µM; IC50 (IC50 (IC50 versus [S]/Km plots), Trial 2, 6-P-F-Asp 250 µM, S/Km 5.952381, unit from Fig. S11 axis): 34 µM; IC50 (IC50 (IC50 versus [S]/Km plots), Trial 2, 6-P-F-Asp 500 µM, S/Km 11.90476, unit from Fig. S11 axis): 32.9 µM; IC50 (IC50 (IC50 versus [S]/Km plots), Trial 2, 6-P-F-Asp 750 µM, S/Km 17.85714, unit from Fig. S11 axis): 35.9 µM; IC50 (IC50 (IC50 versus [S]/Km plots), Trial 2, 6-P-F-Asp 1000 µM, S/Km 23.80952, unit from Fig. S11 axis): 34.9 µM; IC50 (IC50 (IC50 versus [S]/Km plots), Trial 2, 6-P-F-Asp 2000 µM, S/Km 47.61905, unit from Fig. S11 axis): 39.2 µM; IC50 (IC50 (IC50 versus [S]/Km plots), Trial 2, 6-P-F-Asp 3000 µM, S/Km 71.42857, unit from Fig. S11 axis): 42.2 µM; IC50 (IC50, mean and standard deviation of all IC50 values in IC50 vs [S]/Km plot, trial shown in Fig. S11 panels M-X): 40 ± 6 µM; Ki (K I, from Michaelis–Menten analysis of FraB at different inhibitor concentrations, average and standard error from two measurements): 28.5 ± 3.5 µM; Ki (KI from α′ vs [I] plot, trial shown in Fig. S11 panels M-X): 25 µM; Ki (KI from α′ vs [I] plot, trial shown in Fig. S11 panels Y-AJ): 32 µM; K IU/K IC ratio (average (±SE), from 1/IC50 versus v o/V max plots): 0.7 ± 0.1; mode of inhibition (kinetic analyses (Lineweaver‐Burk, α′ vs [I], IC50 vs [S]/K m, 1/IC50 vs v o/V max)): mixed‐type uncompetitive
